Reference: patent publication EP2021356B1, “HIV VACCINE” (priority 2006, dated 2007)
Ends that are not written are not given here.

Tested on: peptide pulsed HHD-EL4S3-Rob target cells
Assay: not given
Settings: Corbet et al., 2003; cited from earlier work
For ALVEMGHHV [Vpu66(9V)^mod], the “immunogenicity of anchor-optimized epitope with cross-reaction to the natural epitope” value is listed as “very strong immune response”. In the case of FLGKIWPV [Gag433(9V)^mod], the “immunogenicity of anchor-optimized epitope with cross-reaction to the natural epitope” value is listed as “very strong immunogens”.

Biological target: HLA-A*0201 molecule (Homo sapiens, UniProt P04439, D140Y/D185E/D98H/E176V/E277Q/G131W/G231S/I119V/I121R/I166T/I218V/L300P/L318F/N151K/N90K/P208A/P217A/Q86G/Q94H/R138H/R169H/T345S)
Assay: In vitro binding to HLA-A*0201
Settings: not given
Work on `CC[C@H](C)[C@H](NC(=O)[C@H](CC(C)C)NC(=O)[C@H](CCC(N)=O)NC(=O)[C@H](CC(=O)O)NC(=O)[C@H](C)NC(=O)[C@H](CC(C)C)NC(=O)CN)C(=O)N[C@@H](Cc1c[nH]cn1)C(=O)N[C@@H](CC(C)C)C(=O)O` [Vif 101 (9L)] yielded an IC50 of 219 nM. Compound DLADQLIHL [Vif 101 (1 D)] has an IC50 of 1950 nM. Work on ELADQLIHL [Vif101(1E)^var] yielded an IC50 of 6590 nM. With GLADQLIHI [Vif 101 (9 I)] the IC50 was 30 nM. In the case of HLADQLIHQ [G1HL9Q], the IC50 is reported as 1160 nM. SLADQLIHL [Vif 101 (1 S)] showed an IC50 of 43 nM.
